Columns and labels:
AMBEL (Ragweed, Common) [1] = assay: Preemergence herbicidal evaluation; type: in vivo, Ambrosia artemisifolia; conditions: rated 4-5 weeks after treatment, rating scale 0-9
Outline: (§1)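 Sown cups got a single aqueous acetone spray of test compound (roughly 0.0156–0.500 kg/ha) before seedlings emerged. Evaluation, 4–5 weeks on, used a 0–9 visual scale covering plant stand, vigor, size, malformation, chlorosis and general appearance compared with controls.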

[2] = tested on: GLXMAW (Soybean, Williams); assay: Postemergence herbicidal evaluation; type: in vivo, Glycine max, (L.) Merr. cv Williams; conditions: postemergence
Outline: (§2)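 Visual 0–9 rating versus control (stand, vigor, malformation, size, chlorosis, overall appearance), taken four to five weeks post-spray. Two-week-old seedlings received roughly 0.0156–0.500 kg/ha active in acetone/water (50/50) with 0.5% TWEEN 20 via nozzle at 40 psi.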

ZEAMX (Corn, Field) = assay: Postemergence herbicidal evaluation; type: in vivo, Zea mays; conditions: postemergence
Outline: as §2

AMBEL (Ragweed, Common) [3] = assay: Postemergence herbicidal evaluation; type: in vivo, Ambrosia artemisifolia; conditions: postemergence
Outline: as §2

ORYSAT (Rice, Tebonnet) = assay: Postemergence herbicidal evaluation; type: in vivo, Oryza sativa, (L.) Tebonnet; conditions: postemergence
Outline: as §2

GALAP (Galium) = assay: Preemergence herbicidal evaluation; type: in vivo, Galium aparine; conditions: rated 4-5 weeks after treatment, rating scale 0-9
Outline: as §1

[4] = tested on: CHEAL (Lambsquarters, Common); assay: Postemergence herbicidal evaluation; type: in vivo, Chenopodium album; conditions: postemergence
Outline: as §2

ABUTH (Velvetleaf) = assay: Postemergence herbicidal evaluation; type: in vivo, Abutilon theophrasti; conditions: postemergence
Outline: as §2

ECHCG (Barnyardgrass) = assay: Postemergence herbicidal evaluation; type: in vivo, Echinochloa crus-galli; conditions: postemergence
Outline: as §2

CYPSE (Flatsedge) = assay: Preemergence weed control under flooded paddy conditions; type: in vivo, Cyperus serotinus; conditions: 0.2500 kg/ha, rated 3-4 weeks after treatment
Outline: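 Seeds or propagules sown in silt loam kept flooded 1.5-3 cm; compounds in 50/50 acetone/water pipetted into flood water at about 0.0313 to 0.500 kg/ha. Greenhouse; visual 0-9 rating versus untreated control 3-4 weeks after treatment.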

CASOB (Sicklepod) = assay: Preemergence herbicidal evaluation; type: in vivo, Cassia obtusifolia; conditions: rated 4-5 weeks after treatment, rating scale 0-9
Outline: as §1

[5] = tested on: CHEAL (Lambsquarters, Common); assay: Preemergence herbicidal evaluation; type: in vivo, Chenopodium album; conditions: rated 4-5 weeks after treatment, rating scale 0-9
Outline: as §1

CCOC(=O)CN1C(=O)C(COC)SC1=Nc1cc(-n2c(=O)cc(C(F)(F)F)n(C)c2=O)c(F)cc1Cl (stereo not shown) [Compound 156, Ethyl 2-{{2-chloro-5-[3,6-dihydro-3-methyl-2,6-dioxo-4-(trifluoromethyl)-1(2H)-pyrimidinyl]-4-fluorophenyl}imino}-5-(methoxymethyl)-4-oxo-3-thiazolidine-acetate]
Preemergence herbicidal rating AMBEL (AMBEL (Ragweed, Common) [1]; rate 0.0313 kg/ha): 0.0
Preemergence herbicidal rating AMBEL (AMBEL (Ragweed, Common) [1]; rate 0.0625 kg/ha): 0.0
Preemergence herbicidal rating AMBEL (AMBEL (Ragweed, Common) [1]; rate 0.1250 kg/ha): 5.0
Preemergence herbicidal rating AMBEL (AMBEL (Ragweed, Common) [1]; rate 0.2500 kg/ha): 9.0
Herbicidal rating GLXMAW ([2]; rate 0.0156 kg/ha): 5.5
Herbicidal rating GLXMAW ([2]; rate 0.0313 kg/ha): 4.0
Herbicidal rating GLXMAW ([2]; rate 0.0625 kg/ha): 5.5
Herbicidal rating ZEAMX (ZEAMX (Corn, Field); rate 0.0156 kg/ha): 4.5
Herbicidal rating ZEAMX (ZEAMX (Corn, Field); rate 0.0313 kg/ha): 4.5
Herbicidal rating ZEAMX (ZEAMX (Corn, Field); rate 0.0625 kg/ha): 4.5
Herbicidal rating AMBEL (AMBEL (Ragweed, Common) [3]; rate 0.0156 kg/ha): 7.0
Herbicidal rating AMBEL (AMBEL (Ragweed, Common) [3]; rate 0.0313 kg/ha): 7.0
Herbicidal rating AMBEL (AMBEL (Ragweed, Common) [3]; rate 0.0625 kg/ha): 9.0
Herbicidal rating ORYSAT (ORYSAT (Rice, Tebonnet); rate 0.0156 kg/ha): 0.5
Herbicidal rating ORYSAT (ORYSAT (Rice, Tebonnet); rate 0.0313 kg/ha): 0.5
Herbicidal rating ORYSAT (ORYSAT (Rice, Tebonnet); rate 0.0625 kg/ha): 2.0
Preemergence herbicidal rating GALAP (GALAP (Galium); rate 0.0313 kg/ha): 0.0
Preemergence herbicidal rating GALAP (GALAP (Galium); rate 0.0625 kg/ha): 4.0
Preemergence herbicidal rating GALAP (GALAP (Galium); rate 0.1250 kg/ha): 4.0
Preemergence herbicidal rating GALAP (GALAP (Galium); rate 0.2500 kg/ha): 9.0
Herbicidal rating CHEAL ([4]; rate 0.0156 kg/ha): 9.0
Herbicidal rating CHEAL ([4]; rate 0.0313 kg/ha): 9.0
Herbicidal rating CHEAL ([4]; rate 0.0625 kg/ha): 9.0
Herbicidal rating ABUTH (ABUTH (Velvetleaf); rate 0.0156 kg/ha): 9.0
Herbicidal rating ABUTH (ABUTH (Velvetleaf); rate 0.0313 kg/ha): 9.0
Herbicidal rating ABUTH (ABUTH (Velvetleaf); rate 0.0625 kg/ha): 9.0
Herbicidal rating ECHCG (ECHCG (Barnyardgrass); rate 0.0156 kg/ha): 0.0
Herbicidal rating ECHCG (ECHCG (Barnyardgrass); rate 0.0313 kg/ha): 0.0
Herbicidal rating ECHCG (ECHCG (Barnyardgrass); rate 0.0625 kg/ha): 0.0
herbicidal effect rating, CYPSE (CYPSE (Flatsedge)): 0.0
Preemergence herbicidal rating CASOB (CASOB (Sicklepod); rate 0.0313 kg/ha): 0.0
Preemergence herbicidal rating CASOB (CASOB (Sicklepod); rate 0.0625 kg/ha): 0.0
Preemergence herbicidal rating CASOB (CASOB (Sicklepod); rate 0.2500 kg/ha): 0.0
Preemergence herbicidal rating CHEAL ([5]; rate 0.0313 kg/ha): 9.0
Preemergence herbicidal rating CHEAL ([5]; rate 0.0625 kg/ha): 9.0
Preemergence herbicidal rating CHEAL ([5]; rate 0.1250 kg/ha): 9.0
Preemergence herbicidal rating CHEAL ([5]; rate 0.2500 kg/ha): 9.0
